{"source": "paper PMC7801616", "about": "“Surface hydrophobics mediate functional dimerization of CYP121A1 of Mycobacterium tuberculosis” (Scientific Reports, 2021)", "key": {"[1]": {"tested_on": "WT CYP121A1 dimer", "parameters": "species or system Mycobacterium tuberculosis"}, "[2]": {"tested_on": "I166A_I180A CYP121A1", "assay_type": "binding, Mycobacterium tuberculosis"}, "[3]": {"tested_on": "I166A_I180A CYP121A1 heme thiolate-CO complex"}, "[4]": {"target": "WT CYP121A1 (dimeric) (Mycobacterium tuberculosis, UniProt P9WPP7)", "assay_type": "binding", "settings": "pH 7.4"}, "[5]": {"target": "I166A_I180A CYP121A1 (monomeric) (Mycobacterium tuberculosis, UniProt P9WPP7, I166A/I180A)", "assay_type": "binding"}}, "note": "“Also recorded” adds a separate entry of the source.", "data": [{"smiles": "Clc1ccc(COC(Cn2ccnc2)c2ccc(Cl)cc2Cl)c(Cl)c1", "note": "(stereo not drawn) [miconazole]", "values": [{"measurement": "effect of ligand saturation on dimer migration on gel filtration column", "setting": "[1]", "value": "did not cause CYP121A1 to migrate on the column as a monomer"}]}, {"smiles": "CC(=O)N1CCN(c2ccc(OCC3COC(Cn4ccnc4)(c4ccc(Cl)cc4Cl)O3)cc2)CC1", "note": "(stereo not drawn) [ketoconazole]", "values": [{"measurement": "effect of ligand on thermal stability", "setting": "[2]", "value": "modest increase in the stability; also recorded: destabilizing"}, {"measurement": "stabilization of the CO-bound 450 nm species", "setting": "[3]", "value": "minimal stabilization of the 450 nm species"}]}, {"smiles": "c1c[nH]cn1", "note": "[imidazole]", "values": [{"measurement": "Kd", "setting": "[4]", "value": 46, "unit": "mM"}, {"measurement": "effect of ligand on thermal stability", "setting": "[2]", "value": "destabilizing"}, {"measurement": "decrease of Kd from dimeric to monomeric CYP121A1", "setting": "[5]", "value": 20, "unit": "fold"}, {"measurement": "Kd", "setting": "[5]; pH 7.4", "value": 2.73, "unit": "mM"}]}, {"smiles": "O=C1N[C@@H](Cc2ccc(O)cc2)C(=O)N[C@H]1Cc1ccc(O)cc1", "note": "[cYY, cyclo-L-Tyr-L-Tyr]", "values": [{"measurement": "increase of estimated half-life of the heme thiolate-CO complex by presence of substrate", "setting": "[3]", "value": 50, "unit": "fold"}]}, {"smiles": "Clc1ccc(COC(Cn2ccnc2)c2ccc(Cl)cc2Cl)cc1", "note": "(stereo not drawn) [econazole]", "values": [{"measurement": "effect of ligand saturation on dimer migration on gel filtration column", "setting": "[1]", "value": "did not cause CYP121A1 to migrate on the column as a monomer"}]}]}
